# Data published in article PMC3908613 (Bioscience Reports, 2014).
# Assays:
# [1] = target: T1, Slk (Mus musculus, UniProt O54988); experiment: Activity of Slk immunoprecipitated from BMDC; format: biochemical, C57BL/6 mice; details: immunoprecipitates treated with 1 μM D1870; resting and LPS-stimulated DC
# T1 construct: Mst1, Lok and Slk were immunoprecipated from 150 μg, 850 μg and 1 mg of cell lysates respectively; endogenous in cells; host or cells: mouse bone-marrow-derived dendritic cells (BMDC), immunoprecipitate
# T1 sequence (O54988 whole entry): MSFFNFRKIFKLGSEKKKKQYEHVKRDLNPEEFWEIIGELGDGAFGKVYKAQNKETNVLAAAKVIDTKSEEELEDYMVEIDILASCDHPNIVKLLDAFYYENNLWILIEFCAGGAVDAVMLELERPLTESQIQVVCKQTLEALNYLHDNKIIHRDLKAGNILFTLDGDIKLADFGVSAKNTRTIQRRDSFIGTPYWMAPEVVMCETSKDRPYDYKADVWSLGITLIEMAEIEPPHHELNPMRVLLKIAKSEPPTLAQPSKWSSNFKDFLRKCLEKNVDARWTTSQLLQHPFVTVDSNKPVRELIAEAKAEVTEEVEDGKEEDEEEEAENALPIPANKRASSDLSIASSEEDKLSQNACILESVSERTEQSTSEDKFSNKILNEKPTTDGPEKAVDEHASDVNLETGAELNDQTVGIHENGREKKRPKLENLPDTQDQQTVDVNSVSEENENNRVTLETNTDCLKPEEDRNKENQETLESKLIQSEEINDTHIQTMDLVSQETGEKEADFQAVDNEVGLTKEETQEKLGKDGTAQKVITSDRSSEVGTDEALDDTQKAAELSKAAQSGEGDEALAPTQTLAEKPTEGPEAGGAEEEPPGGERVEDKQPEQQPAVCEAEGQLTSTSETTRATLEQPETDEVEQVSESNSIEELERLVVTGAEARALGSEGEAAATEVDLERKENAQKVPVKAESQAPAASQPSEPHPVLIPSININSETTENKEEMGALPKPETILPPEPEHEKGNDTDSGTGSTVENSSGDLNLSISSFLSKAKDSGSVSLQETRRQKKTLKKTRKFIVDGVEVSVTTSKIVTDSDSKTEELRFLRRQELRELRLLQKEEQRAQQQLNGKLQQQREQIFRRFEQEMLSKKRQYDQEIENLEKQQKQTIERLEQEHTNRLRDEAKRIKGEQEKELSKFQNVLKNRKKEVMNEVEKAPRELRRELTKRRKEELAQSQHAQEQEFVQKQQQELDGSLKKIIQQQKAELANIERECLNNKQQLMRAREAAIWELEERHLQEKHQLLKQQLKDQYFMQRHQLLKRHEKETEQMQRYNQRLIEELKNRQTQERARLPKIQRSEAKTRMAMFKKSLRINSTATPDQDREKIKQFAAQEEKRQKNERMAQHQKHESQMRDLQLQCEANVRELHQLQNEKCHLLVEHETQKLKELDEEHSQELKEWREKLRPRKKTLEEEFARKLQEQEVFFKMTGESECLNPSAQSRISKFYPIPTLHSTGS
# Experimental: (§1) Equal numbers of BMDC (1×10^7/dish) were incubated in 15 cm dishes in RPMI supplemented with 0.3% FCS for 3 h at 37°C then incubated for 30 min with or without 50 ng/ml LPS. The cells were washed once in cold PBS and lysed in the lysis buffer described above. Mst1, Lok and Slk were immunoprecipated from 150 μg, 850 μg and 1 mg of cell lysates respectively with 2 μg of anti-MST1 (Cell Signalling), anti-Slk (Bethyl) or anti-Lok (Bethyl) or control IgG (Santa Cruz Biotech) coupled to G-protein Sepharose (Amersham) for 1 h at 4°C. […] Kinase assays were performed as described above.
# (§2) A combination of SILAC and nucleotide acyl
# (§3) Alexander J. EDGAR*, Matthias TROST†, Colin WATTS*1 and Rossana ZARU*1
# (§4) *Division of Cell Signalling and Immunolog y, University of Dundee, Dow Street, Dundee DD1 5EH, U.K., and †MRC Protein Phosphor ylation and Ubiquitylation Unit, College of Life Sciences, University of Dundee, Dow Street, Dundee DD1 5EH, U.K.
# (§5) Supplementary Table S1 is available at http://www.bioscirep.
# (§6) Mst1, Lok and Slk activities in DC either unstimulated or stimulated with LPS (50 ng/ml) for 30 min at 37 ◦ C. Immuno- […]
# (§7) of triplicate stimulations. *P < 0.05, **P < 0.01, ***P < 0.001, ns not signiﬁcant.
# (§8) 1 Correspondence may be addressed to either of these authors (email c.watts@dundee.ac.uk or r.zaru@dundee.ac.uk). […]
# [2] = target: T2, Lok (Mus musculus, UniProt O55098); experiment: Activity of Lok immunoprecipitated from BMDC; format: biochemical, C57BL/6 mice; details: immunoprecipitates treated with 1 μM D1870; resting and LPS-stimulated DC
# T2 construct: Mst1, Lok and Slk were immunoprecipated from 150 μg, 850 μg and 1 mg of cell lysates respectively; endogenous in cells; host or cells: mouse bone-marrow-derived dendritic cells (BMDC), immunoprecipitate
# T2 sequence (O55098 whole entry): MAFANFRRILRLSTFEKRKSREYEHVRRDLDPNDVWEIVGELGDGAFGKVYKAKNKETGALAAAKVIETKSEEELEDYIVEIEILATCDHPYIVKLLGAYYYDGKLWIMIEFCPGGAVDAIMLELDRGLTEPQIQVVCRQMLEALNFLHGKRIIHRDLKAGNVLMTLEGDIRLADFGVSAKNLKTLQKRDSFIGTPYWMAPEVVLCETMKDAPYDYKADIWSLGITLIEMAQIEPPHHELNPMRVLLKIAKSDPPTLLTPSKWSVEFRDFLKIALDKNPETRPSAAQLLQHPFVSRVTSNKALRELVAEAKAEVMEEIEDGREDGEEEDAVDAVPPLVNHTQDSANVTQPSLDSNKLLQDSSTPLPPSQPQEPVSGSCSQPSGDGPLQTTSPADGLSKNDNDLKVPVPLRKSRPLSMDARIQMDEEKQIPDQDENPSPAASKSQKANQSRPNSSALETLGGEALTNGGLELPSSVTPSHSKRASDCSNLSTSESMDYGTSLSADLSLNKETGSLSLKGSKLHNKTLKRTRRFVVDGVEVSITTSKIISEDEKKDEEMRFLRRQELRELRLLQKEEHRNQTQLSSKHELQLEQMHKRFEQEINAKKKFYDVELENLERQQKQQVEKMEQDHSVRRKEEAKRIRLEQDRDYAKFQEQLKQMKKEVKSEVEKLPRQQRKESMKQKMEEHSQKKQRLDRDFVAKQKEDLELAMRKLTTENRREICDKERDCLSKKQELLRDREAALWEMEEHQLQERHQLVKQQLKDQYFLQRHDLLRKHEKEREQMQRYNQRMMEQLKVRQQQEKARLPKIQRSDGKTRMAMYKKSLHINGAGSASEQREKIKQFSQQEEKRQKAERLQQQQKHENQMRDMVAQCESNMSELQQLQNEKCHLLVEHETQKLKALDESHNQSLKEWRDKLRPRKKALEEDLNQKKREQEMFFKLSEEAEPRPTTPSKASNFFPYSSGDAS
# Experimental: as §1, §2, §3, §4, §5, §6, §7, §8
# [3] = target: T3, PLK1 (Mus musculus, UniProt Q07832); experiment: Desthiobiotin-ATP probe capture on streptavidin beads, Western blot; format: binding, C57BL/6 mice; details: 10 μM inhibitor, DC lysate
# T3 construct: endogenous in cells; host or cells: mouse spleen-derived dendritic cells (SDC), lysate
# T3 sequence (Q07832 whole entry): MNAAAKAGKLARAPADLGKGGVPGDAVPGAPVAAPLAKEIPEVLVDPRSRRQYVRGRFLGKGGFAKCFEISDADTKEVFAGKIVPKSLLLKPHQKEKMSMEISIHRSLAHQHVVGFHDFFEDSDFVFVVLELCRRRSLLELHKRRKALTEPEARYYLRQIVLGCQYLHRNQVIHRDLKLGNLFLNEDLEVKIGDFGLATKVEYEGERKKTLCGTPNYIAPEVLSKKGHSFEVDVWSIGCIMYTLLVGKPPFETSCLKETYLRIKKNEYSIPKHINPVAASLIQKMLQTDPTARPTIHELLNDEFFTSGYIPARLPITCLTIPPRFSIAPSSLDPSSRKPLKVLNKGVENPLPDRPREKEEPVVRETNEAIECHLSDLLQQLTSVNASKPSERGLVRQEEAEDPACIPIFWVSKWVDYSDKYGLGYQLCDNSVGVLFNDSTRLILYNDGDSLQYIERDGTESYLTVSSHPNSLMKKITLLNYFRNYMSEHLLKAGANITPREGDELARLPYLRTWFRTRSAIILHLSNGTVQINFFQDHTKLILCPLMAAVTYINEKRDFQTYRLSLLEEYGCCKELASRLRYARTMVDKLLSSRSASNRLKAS
# Experimental: SDC were cultured for at least 14 days in RPMI (without arginine and lysine, custom-made by Biosera) containing 10% dialysed FCS (Hyclone) supplemented with 84 mg/l of L-arginine (Sigma) and 40 mg/l L-lysine (Sigma) for the ‘light’ medium or 84 mg/l of L-arginine ^13C6 or ^13C10 and 40 mg/l L-lysine ^13C6 (Cambridge Isotope Laboratory) for the ‘heavy’ medium. Equal numbers (2×10^7) of ‘light’ or ‘heavy’ labelled SDCs were incubated in RPMI containing 0.5% FCS for 3 h in 15 cm dishes. The cells were lysed in the lysis buffer provided in the kit (Pierce). […] Labelling with the desthiobiotin ATP probe, and precipitation with streptavidin beads were performed according to the manufacturer's instructions (Pierce kinase enrichment kit or ActivX™). Equal amount of streptavidin precipitates were separated by electrophoresis as described above and probed with antibodies against Rsk2, Lok (Bethyl), Slk (Bethyl), PLK1 (Calbiochem), p38, Erk2 and Mst1 (from Cell Signaling).
# [4] = system: BMDC; experiment: FITC-dextran uptake (macropinocytosis) by BMDC; format: cell-based, C57BL/6 mice; details: LPS 50 ng/ml, FITC-dextran 1 mg/ml; Akt-i at 1 μM
# Experimental: DCs were generated from the bone marrow or the spleen of C57BL/6 mice as previously described. Briefly, bone marrow cells were cultured for 7 days at 37°C, 5% (v/v) CO2 in complete RPMI medium supplemented with 10 ng/ml recombinant granulocyte–macrophage colony-stimulating factor (GM-CSF; Peprotech). Spleen cells were cultured for 14 days at 37°C, 5% CO2 in complete RPMI containing 10 ng/ml GM-CSF and 1 ng/ml TGFβ (transforming growth factor-β; R&D Systems). NIH3T3 cells (European Cell Culture Collection) were cultured in DMEM (Dulbecco's modified Eagle's medium) supplemented with glutamine, penicillin, streptomycin and 10% (v/v) calf serum (Invitrogen).
# FITC-dextran uptake was measured as described. […] In some experiments, cells were pre-treated with 1 μM Akt-i (Merck) for 30 min. Cells were left unstimulated or were stimulated with 50 ng/ml LPS for 20 min at 37°C followed by the addition of 1 mg/ml FITC dextran (Invitrogen) for 10 min at 37°C. Cells were washed four times at 4°C in PBS supplemented with 2% (v/v) FCS (foetal calf serum) and then stained with APC (allophycocyanin)-labelled anti-CD11c antibody (BD biosciences). FITC dextran uptake was measured on an FACS Calibur (BD biosciences).
# [5] = target: T4, Mst1 (Mus musculus, UniProt Q9JI11); experiment: Activity of Mst1 immunoprecipitated from BMDC; format: biochemical, C57BL/6 mice; details: immunoprecipitates treated with 1 μM D1870; resting and LPS-stimulated DC
# T4 construct: Mst1, Lok and Slk were immunoprecipated from 150 μg, 850 μg and 1 mg of cell lysates respectively; endogenous in cells; host or cells: mouse bone-marrow-derived dendritic cells (BMDC), immunoprecipitate
# T4 sequence (Q9JI11 1-487): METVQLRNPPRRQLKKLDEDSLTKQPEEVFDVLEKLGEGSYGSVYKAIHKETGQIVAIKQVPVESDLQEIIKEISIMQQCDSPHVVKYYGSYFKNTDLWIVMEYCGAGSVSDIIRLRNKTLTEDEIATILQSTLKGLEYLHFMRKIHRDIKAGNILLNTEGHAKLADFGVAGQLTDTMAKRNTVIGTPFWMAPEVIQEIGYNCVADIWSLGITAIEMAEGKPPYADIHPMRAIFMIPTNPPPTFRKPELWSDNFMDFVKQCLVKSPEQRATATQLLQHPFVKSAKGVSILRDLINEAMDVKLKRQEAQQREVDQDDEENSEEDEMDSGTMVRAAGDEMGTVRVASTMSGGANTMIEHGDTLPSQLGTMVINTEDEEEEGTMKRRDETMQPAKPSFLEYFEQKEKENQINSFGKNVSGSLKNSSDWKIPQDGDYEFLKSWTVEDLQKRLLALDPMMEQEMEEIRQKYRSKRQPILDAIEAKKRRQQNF
# Experimental: as §1, §2, §3, §4, §5, §6, §7, §8
smiles,measurement,setting,value
"CC(C)CCN1c2nc(Nc3cc(F)c(O)c(F)c3)ncc2N(C)C(=O)C1C (centres unmarked) [D1870, BI-D1870]",kinase activity of Slk immunoprecipitated from DC,[1],significantly blocked
same,kinase activity of Lok immunoprecipitated from DC,[2],substantially inhibited
same,Recovery of PLK1 on streptavidin beads,[3],blocked
same,LPS-mediated dextran uptake,[4],completely blocked
same,kinase activity of Mst1 immunoprecipitated from DC,[5],substantially inhibited
